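How tested: cells in 96-well plates exposed to compound for 48 hours at five concentrations. TGI: total growth inhibition.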
Experiments:
Experiment in all cases: inhibition of tumour cell growth, NCI panel, 48 h
[1] = test system: 786-0 renal
[2] = test system: A498 renal
[3] = test system: A549 NSCLC
[4] = test system: ACHN renal
[5] = test system: BT-549 breast
[6] = test system: CAKI-1 renal
[7] = test system: CCRF-CEM leukemia
[8] = test system: COLO 205 colon
[9] = test system: DU-145 prostate
[10] = test system: EKVX NSCLC
[11] = test system: HCC-2998 colon
[12] = test system: HCT-116 colon
[13] = test system: HCT-15 colon
[14] = test system: HL-60(TB) leukemia
[15] = test system: HOP-62 NSCLC
[16] = test system: HOP-92 NSCLC
[17] = test system: HS 578T breast
[18] = test system: HT29 colon
[19] = test system: IGROV1 ovarian
[20] = test system: K-562 leukemia
[21] = test system: KM12 colon
[22] = test system: LOX IMVI melanoma
[23] = test system: M14 melanoma
[24] = test system: MALME-3M melanoma
[25] = test system: MCF7 breast
[26] = test system: MDA-MB-231 breast
[27] = test system: MDA-MB-435
[28] = test system: MDA-N
[29] = test system: MOLT-4 leukemia
[30] = test system: NCI-H226 lung
[31] = test system: NCI-H23 lung
[32] = test system: NCI-H460 lung
[33] = test system: NCI-H522 lung
[34] = test system: NCI/ADR-RES ovarian
[35] = test system: OVCAR-3 ovarian
[36] = test system: OVCAR-4 ovarian
[37] = test system: OVCAR-5 ovarian
[38] = test system: OVCAR-8 ovarian
[39] = test system: PC-3 prostate
[40] = test system: RPMI-8226 leukemia
[41] = test system: RXF 393 renal
[42] = test system: SF-268 CNS
[43] = test system: SF-295 CNS
[44] = test system: SF-539 CNS
[45] = test system: SK-MEL-2 melanoma
[46] = test system: SK-MEL-28 melanoma
[47] = test system: SK-MEL-5 melanoma
[48] = test system: SK-OV-3 ovarian
[49] = test system: SN12C renal
[50] = test system: SNB-19 CNS
[51] = test system: SNB-75 CNS
[52] = test system: SR leukemia
[53] = test system: SW-620 colon
[54] = test system: T-47D breast
[55] = test system: TK-10 renal
[56] = test system: U251 CNS
[57] = test system: UACC-257 melanoma
[58] = test system: UACC-62 melanoma
[59] = test system: UO-31 renal

O=S(=O)(O)c1ccc2c(N=Nc3cccc4ccccc34)c(O)c(S(=O)(=O)O)cc2c1
TGI [1]: > 100 µM
TGI [2]: > 100 µM
TGI [3]: > 100 µM
TGI [4]: > 100 µM
TGI [5]: > 100 µM
TGI [6]: > 100 µM
TGI [7]: > 100 µM
TGI [8]: > 100 µM
TGI [9]: > 100 µM
TGI [10]: > 100 µM
TGI [11]: > 100 µM
TGI [12]: > 100 µM
TGI [13]: > 100 µM
TGI [14]: > 100 µM
TGI [15]: > 100 µM
TGI [16]: > 100 µM
TGI [17]: > 100 µM
TGI [18]: > 100 µM
TGI [19]: > 100 µM
TGI [20]: > 100 µM
TGI [21]: > 100 µM
TGI [22]: > 100 µM
TGI [23]: > 100 µM
TGI [24]: > 100 µM
TGI [25]: > 100 µM
TGI [26]: > 100 µM
TGI [27]: > 100 µM
TGI [28]: > 100 µM
TGI [29]: > 100 µM
TGI [30]: > 100 µM
TGI [31]: > 100 µM
TGI [32]: > 100 µM
TGI [33]: > 100 µM
TGI [34]: > 100 µM
TGI [35]: > 100 µM
TGI [36]: > 100 µM
TGI [37]: > 100 µM
TGI [38]: > 100 µM
TGI [39]: > 100 µM
TGI [40]: > 100 µM
TGI [41]: > 100 µM
TGI [42]: > 100 µM
TGI [43]: > 100 µM
TGI [44]: > 100 µM
TGI [45]: > 100 µM
TGI [46]: > 100 µM
TGI [47]: > 100 µM
TGI [48]: > 100 µM
TGI [49]: > 100 µM
TGI [50]: > 100 µM
TGI [51]: > 100 µM
TGI [52]: > 100 µM
TGI [53]: > 100 µM
TGI [54]: > 100 µM
TGI [55]: > 100 µM
TGI [56]: > 100 µM
TGI [57]: > 100 µM
TGI [58]: > 100 µM
TGI [59]: > 100 µM

CN(CCN(C)CCN(C)C(=O)Cc1ccc(Cl)c(Cl)c1)CCN1CCCC1
TGI [1]: 49.6 µM
TGI [2]: 32 µM
TGI [3]: > 100 µM
TGI [4]: > 100 µM
TGI [5]: 77.1 µM
TGI [6]: > 100 µM
TGI [7]: 30.9 µM
TGI [8]: 33.8 µM
TGI [9]: > 100 µM
TGI [10]: > 100 µM
TGI [11]: 26 µM
TGI [12]: > 100 µM
TGI [13]: > 100 µM
TGI [14]: 61.3 µM
TGI [15]: 86.1 µM
TGI [16]: 24.1 µM
TGI [17]: > 100 µM
TGI [18]: 27.3 µM
TGI [19]: > 100 µM
TGI [20]: 12.9 µM
TGI [21]: > 100 µM
TGI [22]: 36.3 µM
TGI [23]: > 100 µM
TGI [24]: 36.6 µM
TGI [25]: 57.2 µM
TGI [26]: 53.9 µM
TGI [27]: 21.6 µM
TGI [28]: 25.1 µM
TGI [29]: 29.1 µM
TGI [30]: 61.3 µM
TGI [31]: > 100 µM
TGI [32]: 82.1 µM
TGI [33]: 41.4 µM
TGI [34]: > 100 µM
TGI [35]: > 100 µM
TGI [36]: > 100 µM
TGI [37]: > 100 µM
TGI [38]: > 100 µM
TGI [39]: > 100 µM
TGI [40]: 22.8 µM
TGI [41]: 39 µM
TGI [42]: > 100 µM
TGI [43]: 41.5 µM
TGI [44]: 46.2 µM
TGI [45]: 31.8 µM
TGI [46]: 6.07 µM
TGI [47]: 35.3 µM
TGI [48]: > 100 µM
TGI [49]: > 100 µM
TGI [50]: > 100 µM
TGI [51]: 73.3 µM
TGI [52]: 34.1 µM
TGI [53]: > 100 µM
TGI [54]: 51.7 µM
TGI [55]: 58.1 µM
TGI [56]: 41.3 µM
TGI [57]: 17.5 µM
TGI [58]: 16.6 µM
TGI [59]: 3.93 µM

Cn1c([N+](=O)[O-])cnc1CN1CCN(CCO)CC1
TGI [1]: > 100 µM
TGI [2]: > 100 µM
TGI [3]: > 100 µM
TGI [4]: > 100 µM
TGI [5]: > 100 µM
TGI [6]: > 100 µM
TGI [7]: > 100 µM
TGI [8]: > 100 µM
TGI [9]: > 100 µM
TGI [10]: > 100 µM
TGI [11]: > 100 µM
TGI [12]: > 100 µM
TGI [13]: > 100 µM
TGI [14]: > 100 µM
TGI [15]: > 100 µM
TGI [16]: > 100 µM
TGI [17]: > 100 µM
TGI [18]: > 100 µM
TGI [19]: > 100 µM
TGI [20]: > 100 µM
TGI [21]: > 100 µM
TGI [22]: > 100 µM
TGI [23]: > 100 µM
TGI [24]: > 100 µM
TGI [25]: > 100 µM
TGI [26]: > 100 µM
TGI [27]: > 100 µM
TGI [28]: > 100 µM
TGI [29]: > 100 µM
TGI [30]: > 100 µM
TGI [31]: > 100 µM
TGI [32]: > 100 µM
TGI [33]: > 100 µM
TGI [34]: > 100 µM
TGI [35]: > 100 µM
TGI [36]: > 100 µM
TGI [37]: > 100 µM
TGI [38]: > 100 µM
TGI [39]: > 100 µM
TGI [40]: > 100 µM
TGI [41]: > 100 µM
TGI [42]: > 100 µM
TGI [43]: > 100 µM
TGI [44]: > 100 µM
TGI [45]: > 100 µM
TGI [46]: > 100 µM
TGI [47]: > 100 µM
TGI [48]: > 100 µM
TGI [49]: > 100 µM
TGI [50]: > 100 µM
TGI [51]: > 100 µM
TGI [52]: > 100 µM
TGI [53]: > 100 µM
TGI [54]: > 100 µM
TGI [55]: > 100 µM
TGI [56]: > 100 µM
TGI [57]: > 100 µM
TGI [58]: > 100 µM
TGI [59]: > 100 µM
